According to patent US20230234917A1, “ASPARAGINE DERIVATIVES AND METHODS OF USING SAME” (priority 2020, published 2023):

Key:
ClbP [1] = target: T1, ClbP (Escherichia coli, UniProt Q0P7K6); assay: ClbP cell lysate activity (inhibition) assay, fluorogenic substrate; format: biochemical; settings: ClbP Lysate Inhibition Assay: IC50, E. coli ClbP+ lysozyme-EDTA lysates, 5 μM fluorogenic substrate, inhibitor 0-300 μM, 37° C., singlicate
Procedure: Cell Lysate Activity Assay
(§1) 1) E. coli ClbP+ were taken from a frozen stock and streaked onto BHI plates. They were grown aerobically at 37° C. overnight in the incubator.
(§2) 1) A single colony was selected from the plate and inoculated into 30 mL LB in a 50 mL conical vial eight times (240 mL total). The bacteria were grown aerobically overnight (16-20 h) at 37° C. on a nutator with rocking.
1) The saturated overnight culture was centrifuged to create a firm pellet (3,200 g, 10 min, 4° C.). The supernatant was removed and then the pellet was resuspended in 30 mL sterile PBS.
2) The bacteria were centrifuged again (3,200 g, 10 min, 4° C.). The supernatant was removed, and the pellet was resuspended in sterile PBS buffer (3 mL) in each 8 tubes to make a tenfold concentrated bacterial solution.
3) A lysozyme-EDTA (LE) solution was made in ddH2O (0.05 mg/mL lysozyme, 0.25 M EDTA).
4) For each of the eight tubes, LE solution (3 mL) was mixed with concentrated bacterial solution (3 mL). This mixture was incubated at 37° C. for 30 min to generate the lysates.
5) The lysates (192 μL) were mixed with inhibitor (6 μL, final concentration was 300, 100, 33.3, 11.1, 3.7, 1.2, 0.4, or 0 μM). Fluorogenic substrate (2 μL, final concentration 5 μM) was immediately added across the plate to initiate the reaction. As a control, each plate contained Compound No. III in this dose response curve. The final concentration of bacterial lysates was fivefold concentrated compared to the original saturated overnight culture. Carryover from DMSO was 4% (v/v). All compounds were tested in singlicate.
(§3) 6) The plate was loaded into a spectrophotometer preheated to 37° C. The fluorescence was recorded every 2 min for 46 min. The excitation wavelength was 360 nm (20 nm bandwidth), the emission wavelength was 460 nm (20 nm bandwidth), the optics position was bottom, the gain was 65, the light source was a tungsten bulb, and the read speed was normal.
(§4) 7) The linear portion of the fluorescence increase was 0-20 min. The rate of fluorescence increase (A.U./min) for each well in an inhibitor series was normalized to the 0 μM inhibitor condition. The normalized activity as a function of inhibitor concentration was then fit to a three parameter IC50 curve in Graphpad Prism.
(§5) “A” indicates an IC50 value less than 100 μM, “B” indicates an IC50 between 100 and 300 μM, “C” indicates an IC50 above 300 μM.

ClbP [2] = target: T1, ClbP; assay: ClbP whole cell activity (inhibition) assay, fluorogenic substrate; format: cell-based, E. coli
Procedure: Whole Cell Activity Assay
as §1, §2
1) The saturated overnight culture was centrifuged to create a firm pellet (3,200 g, 10 min, 4° C.). In a biosafety cabinet, the supernatant was removed and then the pellet was resuspended in 30 mL sterile PBS.
2) The bacteria were centrifuged again (3,200 g, 10 min, 4° C.). The supernatant was removed, and the pellet was resuspended in sterile PBS buffer (6 mL) in each of the 8 tubes. This fivefold concentrated bacterial solution was the working solution.
3) The bacterial working solution (192 μL) was mixed with inhibitor (6 μL, final concentration was 300, 100, 33.3, 11.1, 3.7, 1.2, 0.4, or 0 μM). Fluorogenic substrate (2 μL, final concentration 5 μM) was immediately added across the plate to initiate the reaction. As a control, each plate contained Compound No. III in this dose response curve. The bacterial concentration was fivefold concentrated compared to the original saturated overnight culture. Carryover from DMSO was 4% (v/v). All compounds were tested in singlicate.
as §3, with “4)” for “6)”
as §4, with “5)” for “7)”, “10-30” for “0-20”
as §5

Full-length WT ClbP = Full-length WT ClbP (Escherichia coli, UniProt Q0P7K6); assay: ClbP molecular (purified protein) enzymatic inhibition assay, fluorogenic substrate; format: biochemical, E. coli
Procedure: ClbP Molecular (Purified Protein) Assay
1) Full-length WT ClbP was thawed on ice. A diluted enzyme solution (2 nM) was made by mixing 3.57 μL of enzyme with 20 mL of reaction buffer (50 mM Tris pH 8.0, 200 mM NaCl, 0.02% (w/v) n-dodecyl-b-D-maltoside (DDM)).
2) In a 96 well plate, the diluted protein solution (73.5 μL) was mixed with inhibitor (1.5 μL, of varying concentrations, see below) and preincubated for 15 min at room temperature. Then, reaction buffer (75 μL) containing 10 μM fluorogenic substrate was added to initiate the reaction. After addition of substrate, the final concentrations were 1 nM full-length WT ClbP, 5 μM fluorogenic substrate in 50 mM Tris pH 8.0, 200 mM NaCl, 0.02% (w/v) DDM, with either 0, 0.14, 0.41, 1.2, 3.7, 11, 33, or 100 μM inhibitor. For all conditions, the DMSO carryover was 2% (v/v) at the preincubation stage and 1% in the reaction stage. Compound No. III was always present as a control in each plate, and all compounds were tested in singlicate. In previous assays, the Km of the fluorogenic substrate was determined to be approximately 5 μM.
3) Immediately after addition of substrate to enzyme, the plate was transferred into a spectrophotometer held at room temperature. The fluorescence was recorded every 1.5 min for 15 min. The excitation wavelength was 360 nm (20 nm bandwidth), the emission wavelength was 440 nm (20 nm bandwidth), the optics position was bottom, the gain was extended, the light source was a xenon flash lamp, and the read speed was normal.
as §4, with “4)” for “7)”, “is at least from 0-6 min, so this time regime is used.” for “was 0-20 min.”
as §5

| SMILES | IC50 (ClbP [1]) [µM] | IC50 (ClbP [2]) [µM] | IC50 (Full-length WT ClbP) [µM] |
| --- | --- | --- | --- |
| NC(=O)C[C@@H](NC(=O)CCCc1ccc(O)cc1)C(=O)NCCc1ccc(O)cc1 [Compound CCLIII] | < 100 | < 100 | < 100 |
| NC(=O)C[C@@H](NC(=O)CCCC1CCNCC1)C(=O)NCCc1ccc(O)cc1 [Compound CCLII] | > 300 | > 300 | 100 to 300 |
| CCCCCCCC(=O)N[C@H](CC(N)=O)C(=O)NCCOc1ccccc1 [Compound CCLIV] | < 100 | < 100 | < 100 |
| CCCCCC(=O)N[C@H](CC(N)=O)C(=O)NCCc1ccc(C(F)(F)F)cc1 [Compound CCLIX] | 100 to 300 |  | 100 to 300 |
| NC(=O)C[C@@H](NC(=O)CCCc1ccncc1)C(=O)NCCc1ccc(O)cc1 [Compound CCLI] | 100 to 300 | < 100 | < 100 |
| CCCCCCCC(=O)N[C@H](CC(N)=O)C(=O)c1nccn1Cc1ccccc1 [Compound CCLVIII] | > 300 | > 300 | 100 to 300 |
| CCCCCCCC(=O)N[C@H](CC(N)=O)C(=O)c1nccn1C [Compound CCLVII] | > 300 | > 300 | 100 to 300 |
| CCCCCCCC(=O)N[C@H](CC(N)=O)C(=O)NCCc1cc(F)c(O)c(F)c1 [Compound CCLVI] | < 100 | < 100 | < 100 |
| CCCCCCCC(=O)N[C@H](CC(N)=O)C(=O)NCCOc1c(F)cccc1F [Compound CCLV] | < 100 | < 100 | < 100 |
| NC(=O)C[C@@H](NC(=O)CCCC1CCCC1)C(=O)NCCc1ccccc1 [Compound CCLXIII] | < 100 | < 100 | < 100 |
| NC(=O)C[C@@H](NC(=O)/C=C/CC1CCCC1)C(=O)NCCc1ccccc1 [Compound CCLXII] | > 300 | > 300 | < 100 |
| NC(=O)C[C@@H](NC(=O)CCCCCCC(=O)O)C(=O)NCCc1ccccc1 [Compound CCLXIV] | > 300 | > 300 | 100 to 300 |
| NC(=O)C[C@@H](NC(=O)CCCc1ccccc1)C(=O)NCCc1ccccc1 [Compound CCLXIX] | < 100 | < 100 | < 100 |
| NC(=O)C[C@@H](NC(=O)CCCC1CCCC1)C(=O)NCCc1ccc(O)cc1 [Compound CCLXI] | < 100 | < 100 | < 100 |
| CCCC(=O)N[C@H](CC(N)=O)C(=O)NCCc1ccccc1 [Compound CCLXVIII] | > 300 | < 100 | 100 to 300 |
| CCCCCC(=O)N[C@H](CC(N)=O)C(=O)NCCc1ccccc1 [Compound CCLXVII] | 100 to 300 | < 100 | < 100 |
| CCCCCCCC(=O)N[C@H](CC(N)=O)C(=O)NCCc1ccc(O)cc1 [Compound CC] |  |  | < 100 |
| CCCCCCCNC(=O)[C@H](CC(N)=O)NC(=O)OCC [Compound XCIX] | > 300 | > 300 |  |
